For series [1], the system named is FMDV serotype A [A/TAI/NP05/2017 (NP05)]. In words: microbe, parasite or virus in culture. Format: cell-based, Foot-and-mouth disease virus. The settings on record: for EC50: read-out: Antiviral Activity (EC50) CPE (Crystal Violet).
For series [2] the test system is unchanged. In words: microbe, parasite or virus in culture. It counts as cell-based, Foot-and-mouth disease virus.
Series [3] has the same test system. In words: microbe, parasite or virus in culture. It counts as cell-based, Foot-and-mouth disease virus. The following applies: for EC50: read-out: Antiviral Activity (EC50) Viral Copy Number (RT-qPCR). In general terms: Real-time PCR tracks product formation cycle by cycle.
The next series in a line: in vitro. The settings on record: hamster.
Series [4] relates to human herpes simplex virus-2 (HSV-2). The settings on record: cited from earlier work.
Another series deals with FMDV 3D^pol (Foot-and-mouth disease virus serotype O, UniProt P03305). In words: cell-based. It counts as cell-based.
A further series concerns HSV-1. The following applies: cited from earlier work.
The next series has as its system ZIKV. The settings on record: read-out: IC50 against ZIKV; cited from earlier work.
Where [5] appears, read: Foot-and-mouth disease virus, BHK-21, 24 h.
The mark [6] stands for this setting: Foot-and-mouth disease virus, BHK-21, read-out: Antiviral Activity (EC50) FMDV-Infected Cells (IPMA).
Where [7] appears, read: read-out: Antiviral Activity (EC50) FMDV-Infected Cells (IPMA).

Where two headings read alike, the source gives them in different places. Some results are limits rather than exact numbers.

Sequence of FMDV 3D^pol (P03305 1863-2332 limits assumed): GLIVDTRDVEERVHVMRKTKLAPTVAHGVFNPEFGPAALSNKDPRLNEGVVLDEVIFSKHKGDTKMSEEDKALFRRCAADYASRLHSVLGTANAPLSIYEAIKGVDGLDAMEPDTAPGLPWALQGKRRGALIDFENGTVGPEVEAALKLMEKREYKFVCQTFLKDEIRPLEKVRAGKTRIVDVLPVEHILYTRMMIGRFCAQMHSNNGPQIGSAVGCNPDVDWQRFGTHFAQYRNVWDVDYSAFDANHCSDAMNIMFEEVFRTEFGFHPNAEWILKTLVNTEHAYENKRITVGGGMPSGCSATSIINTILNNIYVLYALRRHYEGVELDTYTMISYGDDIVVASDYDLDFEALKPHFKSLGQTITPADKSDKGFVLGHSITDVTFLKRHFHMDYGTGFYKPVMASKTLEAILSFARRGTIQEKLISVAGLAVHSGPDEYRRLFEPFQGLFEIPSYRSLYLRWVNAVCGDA

Take `NC(=O)c1ncn([C@@H]2O[C@H](CO)[C@@H](O)[C@H]2O)n1` [Ribavirin, reference compound]: the results for the EC50 in [1] (setting [5]), in series [2] (setting [6]) and in series [3] (setting [5]) were 64.5 ± 1.81 µM, 40.9 ± 1.61 µM and 27.7 ± 1.44 µM, respectively. The CC50 in the series “in vitro” was more than 500 µM.
`CC1=C[C@]23C(=O)[C@@H](C=C(CO)[C@@H](O)[C@]2(O)[C@H]1O)[C@H]1[C@@H](C[C@H]3C)C1(C)C` [Ingenol] came in with a CC50 in “in vitro” of 417.1 ± 2.62 µM.
Consider `C[C@@H]1CC[C@]2(C(=O)O[C@@H]3O[C@H](CO)[C@@H](O)[C@H](O)[C@H]3O)CC[C@]3(C)C(=CC[C@@H]4[C@@]5(C)C[C@@H](O)[C@H](O)C(C)(C)[C@@H]5CC[C@]43C)[C@@H]2[C@]1(C)O` [Rosamultin], for which the CC50 with BHK-21 cells was determined as 333.2 ± 2.52 µM.
Compound `C=C1[C@H](OC(=O)c2ccccc2)C[C@H]2[C@@H](/C=C(\C)C(=O)[C@@]3(OC(C)=O)C[C@H](C)[C@H](OC(=O)c4ccccc4)[C@@H]3[C@H]1OC(C)=O)C2(C)C` [Euphorbia factor L2] displayed a CC50 with BHK-21 cells of 114 ± 2.06 µM.
Consider `C=C[C@@]1(C)CC(=O)[C@]2(O)[C@@]3(C)[C@@H](O)CCC(C)(C)[C@@H]3[C@H](O)[C@H](OC(C)=O)[C@@]2(C)O1` [Forskolin], for which, in “in vitro”, the CC50 amounted to 75.9 ± 1.88 µM.
Compound `CC(=O)O[C@H]1[C@H]2[C@@H](OC(=O)Cc3ccccc3)[C@@H](C)C[C@]2(OC(C)=O)C(=O)/C(C)=C/[C@@H]2[C@H](CC[C@@]13CO3)C2(C)C` [Euphorbiasteroid] displayed a CC50 in the series on BHK-21 cells of more than 500 µM.
Take `CC(C)C1=CC2=CC[C@@H]3[C@](C)(CCC[C@@]3(C)C(=O)O)[C@H]2CC1` [Abietic acid]: in series [1], the “Antiviral Activity (EC50) CPE (Crystal Violet)” value was “Not inhibit” and the “Antiviral activity against FMDV infection (result in words)” value (“Antiviral activity … (result in words)” below) is reported as “did not exhibit antiviral activity”. For the same compound, the “Activity against HSV-2 (result in words)” value in series [4] is “did not exhibit such activity”. This compound came in with a CC50 in “in vitro” of 99.2 ± 2 µM.
As for `CC(C)c1ccc2c(c1)CC[C@H]1[C@](C)(C(=O)O)CCC[C@]21C` [Dehydroabietic acid], in [1], the “Antiviral activity … (result in words)” value was “exhibited antiviral activities”. Moreover, the EC50 was 41.7 ± 1.62 µM in series [1] (setting [5]), 34 ± 1.53 µM in [2] (setting [6]) and 64.5 ± 1.81 µM in [3] (setting [5]). For the same compound, in [3], the “Inhibition of viral load (result in words)” value (“Inhibition of viral load” below) is given as “low to moderate inhibition”. On FMDV 3D^pol, this compound had an IC50 of more than 50 µM. The “Activity against HSV-2 (result in words)” value in series [4] is “moderate activity”. Moreover, the “Activity against HSV-1 (result in words)” value in the series with HSV-1 is reported as “did not inhibit”. Further, the CC50 in “in vitro” turned out to be 94.8 ± 1.98 µM.
`CC(C)=CCC[C@](C)(O)[C@H]1CC[C@]2(C)[C@@H]1[C@H](O)C[C@@H]1[C@@]3(C)CC[C@H](O[C@@H]4O[C@H](CO)[C@@H](O)[C@H](O)[C@H]4O[C@@H]4O[C@H](CO)[C@@H](O)[C@H](O)[C@H]4O)C(C)(C)[C@@H]3CC[C@]12C` [Ginsenoside Rg3] displayed a CC50 with BHK-21 cells of 269.9 ± 2.43 µM.
As to `C=C1C(=O)[C@]23[C@H](O)[C@H]1CC[C@H]2[C@@]12CO[C@]3(O)[C@@H](O)[C@@H]1C(C)(C)CC[C@@H]2O` [Oridonin], the CC50 in the series “in vitro” was determined as 46.8 ± 1.67 µM.
Still for that read-out and setting: next, `CC1(C)O[C@H]2CC(=O)OC[C@]23[C@H]2CC[C@@]4(C)[C@H](c5ccoc5)OC(=O)[C@H]5O[C@]54[C@]2(C)[C@@H](O)C(=O)[C@@H]13` [Rutaevin]: 472 ± 2.67 µM.
In the series with BHK-21 cells, `CC(C)(O)CCC(=O)[C@](C)(O)C1[C@H](O)C[C@@]2(C)[C@@H]3CC=C4[C@@H](C[C@H](O)[C@@H](O)C4(C)C)[C@]3(C)C(=O)C[C@]12C` (some centres unmarked) [Cucurbitacin IIb] had a CC50 of 240.5 ± 2.38 µM.
Take `CCC(C)(C)C(=O)O[C@H]1C[C@@H](C)C=C2C=C[C@H](C)[C@H](CC[C@@H]3C[C@@H](O)CC(=O)O3)[C@H]21` [Simvastatin, reference compound]: the CC50 in “in vitro” stood at 294.4 ± 2.47 µM.
Regarding `C[C@H]1O[C@@H](O[C@H]2CC[C@@]3(C)[C@@H](CC[C@]4(C)[C@@H]3C=CC3=C5CC(C)(C)CC[C@]5(CO)[C@H](O)C[C@]34C)[C@]2(C)CO)[C@H](O)[C@@H](O[C@@H]2O[C@H](CO)[C@@H](O)[C@H](O)[C@H]2O)[C@H]1O` [Saikosaponin B2], the CC50 in the series with BHK-21 cells was more than 500 µM.
`CC1(C)O[C@H]2CC(=O)OC[C@]23[C@H]2CC[C@@]4(C)[C@H](c5ccoc5)OC(=O)[C@H]5O[C@]54[C@]2(C)C(=O)C[C@@H]13` [Limonin] showed a CC50 in “in vitro” of 116 ± 2.07 µM.
Take `CC1=CC(=O)[C@@H](O)[C@]2(C)[C@H]3[C@@H](O)[C@H](O)[C@@]4(C)OC[C@@]35[C@@H](C[C@@H]12)OC(=O)[C@H](O)[C@]54O` [Bruceine D]: in [1], the “Antiviral activity … (result in words)” value was “exhibited antiviral activities” and the EC50 is 0.25 ± 0.6 µM. Besides, the EC50 in series [2] (setting [7]) is 0.32 ± 0.49 µM. Besides, in [3], the “Concentration range of complete inhibition of FMDV” value lay in the range of 1 to 2.5 µM and the 50% effective concentration (EC50) was determined as 0.42 ± 0.38 µM. In addition, the IC50 in the series with ZIKV was 0.36 µM.
As for `CC1=C[C@H](O)[C@@H](O)[C@]2(C)[C@H]3[C@@H](O)[C@H](O)[C@@]4(C)OC[C@@]35[C@@H](C[C@@H]12)OC(=O)[C@H](O)[C@]54O` [Bruceine E], the “Antiviral activity … (result in words)” value in series [1] was “exhibited antiviral activities”. For the same compound, the EC50 came out at 18.1 ± 1.26 µM in series [1] (setting [5]), 12.9 ± 1.11 µM in series [2] (setting [6]) and 33.4 ± 1.52 µM in series [3] (setting [5]). Moreover, in [3], the “Inhibition of viral load” value was “moderate potency”. The compound further showed an IC50 at FMDV 3D^pol of 26.7 ± 1.43 µM. Also, on FMDV 3D^pol, the “Inhibition of FMDV 3Dpol (result in words)” value was “moderate inhibition”. The CC50 in “in vitro” stood at 49.6 ± 1.7 µM.
In the series with BHK-21 cells, `C=C(C(=O)O)[C@H]1CC[C@H](C)[C@@H]2CC(=O)C(C)=C2C1` [Rupestonic acid] had a CC50 of 72.3 ± 1.86 µM.
As to `C[C@@H]1C[C@@H]([C@@H](O)C(C)(C)O)O[C@H]2C[C@@]3(C)C(=C12)C[C@H](O)[C@H]1[C@@]2(C)CCC(=O)C(C)(C)[C@@H]2CC[C@@]13C` [Alisol F], in the series on BHK-21 cells, the CC50 was 85.2 ± 1.93 µM.
As for `CC(C)[C@]12O[C@H]1[C@@H]1O[C@]13[C@]1(O[C@H]1C[C@H]1C4=C(CC[C@@]13C)C(=O)OC4)[C@@H]2O` [Triptolide], in the series “in vitro”, the CC50 came to 122 ± 2.09 µM.
For the compound `C=C1CC[C@H]2[C@@H](/C=C(\C)C(=O)[C@@]3(O)C[C@H](C)[C@H](O)[C@@H]3[C@@H]1O)C2(C)C` [Lathyrol], the CC50 in the series with BHK-21 cells worked out at 314.6 ± 2.5 µM.
In the series “in vitro”, `CC(C)c1ccc2c(c1O)CC[C@H]1C3=C(CC[C@]21C)C(=O)OC3` [Triptophenolide] had a CC50 of 117 ± 2.07 µM.
In the case of `C=C1C[C@@]23CC[C@H]4[C@@](C)(CCC[C@@]4(C)C(=O)O)[C@@H]2CC[C@@H]1C3` [Kaurenoic acid], in series [1], the “Antiviral Activity (EC50) CPE (Crystal Violet)” value was “Not inhibit” and the “Antiviral activity … (result in words)” value is “did not exhibit antiviral activity”. Further, in “in vitro”, the CC50 came out at 266.1 ± 2.42 µM.
`CC1(C)CCC2(C(=O)O)CCC3(CO)C(=CCC4C5(C)CC(O)C(OC6OC(CO)C(O)C(O)C6O)C(C)(C(=O)O)C5CCC43C)C2C1` (centres unmarked) [Tenuifolin] came in with a CC50 in the series “in vitro” of 54.9 ± 1.74 µM.
`CC(C)=CCC[C@](C)(O)[C@H]1CC[C@]2(C)[C@@H]1[C@H](O)C[C@@H]1[C@@]3(C)CC[C@H](O)C(C)(C)[C@@H]3[C@@H](O[C@@H]3O[C@H](CO)[C@@H](O)[C@H](O)[C@H]3O)C[C@]12C` [Ginsenoside Rh1] came in with a CC50 in “in vitro” of 174 ± 2.24 µM.
As for `C=CC1(C)C=C2CCC3C(C)(C(=O)O)CCCC3(C)C2CC1` (centres unmarked) [Continentalic acid], in series [1], the “Antiviral activity … (result in words)” value is given as “exhibited antiviral activities”. The EC50 in series [1] (setting [5]) came out at 43.4 ± 1.64 µM; in [2] (setting [6]), 35 ± 1.54 µM; in series [3] (setting [5]), 68.3 ± 1.83 µM. Also, the “Inhibition of viral load” value in [3] was “moderate inhibition”. On FMDV 3D^pol, this compound registered a 50% inhibitory concentration (IC50) of 36.9 ± 1.57 µM. Moreover, the “Inhibition of FMDV 3Dpol (result in words)” value on FMDV 3D^pol is “moderate inhibition”. In “in vitro”, this compound had a CC50 of 88.7 ± 1.82 µM.
Compound `C[C@H](CC(=O)C[C@@H](C)[C@H]1C[C@H](O)[C@@]2(C)C3=C(C(=O)C[C@]12C)[C@@]1(C)CCC(=O)C(C)(C)[C@@H]1C[C@@H]3O)C(=O)O` [Ganoderic acid A] registered a CC50 in the series “in vitro” of more than 500 µM.
For `CC(=O)O[C@@]12CO[C@@H]1C[C@H](O)[C@@]1(C)C(=O)[C@H](O)C3=C(C)[C@@H](O)C[C@@](O)([C@@H](OC(=O)c4ccccc4)[C@H]21)C3(C)C` [10-Deacetylbaccatin III], in the series with BHK-21 cells, the CC50 was more than 500 µM.
The compound `COC(=O)C1=CC[C@@]23CC[C@@H]([C@@](C)(/C=C/C=C(\C)C(=O)O)OC2=O)[C@@]3(OC(C)=O)CC1` [Pseudolaric acid] had a CC50 in the series on BHK-21 cells of 25.3 ± 1.4 µM.
`C[C@@H]1C(=O)O[C@H]2C[C@@]34[C@H]5C[C@@H](C(C)(C)C)[C@]36[C@@H](OC(=O)[C@@H]6O)O[C@@]4(C(=O)O5)[C@]21O` [Ginkgolide A] came in with a CC50 in “in vitro” of 314.2 ± 2.5 µM.
In the case of Brusatol, in [1], the “Antiviral activity … (result in words)” value is on record as “exhibited antiviral activities” and the concentration for a half-maximal effect (EC50) was determined as 0.18 ± 0.27 µM. For the same compound, in series [2] (setting [7]), the half-maximal effective concentration (EC50) came out at 0.07 µM. For the same compound, in series [3], the “Concentration range of complete inhibition of FMDV” value was 0.5 to 1 µM and the EC50 came to 0.09 µM.
In turn, `C[C@@H]1CC[C@]2(C(=O)O)CC[C@]3(C)C(=CC[C@@H]4[C@@]5(C)CC[C@H](O[C@@H]6OC[C@H](O)[C@H](O)[C@H]6O)C(C)(C)[C@@H]5CC[C@]43C)[C@@H]2[C@]1(C)O` [Ziyuglycoside II] gave a CC50 in the series on BHK-21 cells of 57.7 ± 1.76 µM.

A word on the EC50: it is the concentration at which the effect is half-maximal. Broadly, the IC50 is the concentration at which inhibition is half-maximal.
